pIC50: −log10 of the molar value.
Assays:
Assay in all cases: Human cancer cell line panel, proliferation (sulforhodamine B)
Format in all cases: cell-based
[1] = test system: brain tumor cell line SF-295; settings: SF-295, 2 days of cultivation; read-out: 50% inhibitory concentration, proliferation
[2] = test system: colon cancer cell line KM-12; settings: KM-12, 2 days of cultivation; read-out: 50% inhibitory concentration, proliferation
[3] = test system: kidney cancer cell line ACHN; settings: 2 days of cultivation, read-out: 50% inhibitory concentration, proliferation
[4] = test system: ovarian cancer cell line SK-OV-3; settings: SK-OV-3, 2 days of cultivation; read-out: 50% inhibitory concentration, proliferation

Measured: pIC50

CC(=O)CSCCCCC[C@@H]1NC(=O)[C@H]2CCCN2C(=O)[C@H](Cc2ccccc2)NC(=O)C(C)(C)NC1=O [Ky-72, cyclo(-L-Am7(acetonyl)-Aib-L-Phe-D-Pro-)]
≥ 7.00: all assays above
